The values below come from patent publication US10886008B2, “Methods and systems for determining the biological age of samples” (Spring Discovery, Inc., priority 2018, dated 2021).

The subject of one assay is mouse myoblast cells. As to the kind of experiment: In vitro cell-based drug screening of mouse myoblast cells with machine-learning biological age prediction. On the set-up: species or system C57BL/6J mice. Particulars: for Change relative to control: average predicted age of treatment vs vehicle control wells on the same plate, concentrations of Table 8; for Average predicted age of treatment (months): primary myoblasts, concentrations of Table 8: Oxytocin 30 nM, TGFbeta 10 ng/mL, Wnt3a 100 ng/ml, Klotho 0.5 μg/mL, ALK5 inhibitor II 0.5 μM, PP242 300 nM, stained 48 hours post-plating. The method, then: The machine learning systems and methods for predicting biological age were applied toward accelerating drug screens designed to detect interventions that slow or reverse one or more phenotypes of aging. Such a drug screening approach was tested using proof-of-concept drug screens, including an in vitro drug screening experimental model. This machine learning-based drug screening approach for aging-related therapies is described below. The machine learning-based mouse myoblast cellular aging approach was used to test an in vitro screening model for detecting anti-aging molecules for myoblasts.
The myoblast cell screening was run in parallel with the myoblast biological age prediction described in Example 3, and the same processes for primary cell acquisition, preparation, processing, and image acquisition steps were performed as described in Example 3.
For myoblast screening, replicate 384-well plates were dedicated to testing compound treatments (Treatment Plates) and were seeded with primary myoblasts, replicating the same plate layout as the myoblast age prediction experiment described in Example 3.
For the Treatment Plates, after the cells adhere to the plate (around 2 hours post-plating) the media was changed. For each set of 10 replicate wells from each primary myoblast line, 4 of the wells received media supplemented with vehicle control, 3 wells received media supplemented with one test compound, and 3 wells received media supplemented with another test compound. In this manner, each Treatment Plate was used to test two different compounds, and three Treatment Plates were used in total to test six different compounds.
All Treatment Plates were fed 24 hours post-plating with myoblast growth media supplemented with drugs or their respective vehicle control.
As mentioned, the plates are handled, processed, and stained in the same way as described in the myoblast biological age prediction described in Example 3. Briefly, these plates were stained for EdU, desmin, ER cytopainter, and counterstained with Hoechst.
Next, the data were prepared using a similar process as that described in Example 3. This created a treatment dataset that was analyzed using a previously generated aging model, which was trained on the aging dataset that was generated as described in Example 3.
Next, the data was analyzed using a similar deep convolutional neural network architecture and the machine learning analysis approach described in Example 1. First, the deep convolutional neural network architecture was trained using the aging dataset and the machine learning analysis approach described in Example 1. Performing this training yields a final set of weights to use with the neural network for the treatment analysis. Second, the effects of the treatments were analyzed by applying the generated neural network to the entirety of the treatment dataset. This is subsequently referred to as a “transference” of the aging model to the treatment data.
Next, as described in Example 6, average age predictions for each mouse were produced by predicting the biological age classification for each tile and averaging all tiles' predictions together. This calculation was performed for all three folds of the data, and those average predictions were then averaged together again. This produced a single numerical biological age prediction for each mouse, which was compared to control.
Next, as described in Example 6, p-values were calculated using the Kolmogorov-Smirnov test to assess the statistical difference of the distributions of age predictions for each compound versus control. Note that in this case, because there are multiple plates being tested, each with different test compounds, each compound is compared only to the control wells on its own plate, thereby resulting in different control values for each compound, as shown in Table 9.

Another assay has as its system mouse skin tissue. As to the kind of experiment: In vivo tissue-based drug screening of mouse skin tissue with machine-learning biological age prediction. Details: species or system C57BL/6J mice. Particulars: daily topical application for 61 days. The method, then:
The machine learning systems and methods for predicting biological age were applied toward accelerating drug screens designed to detect interventions that slow or reverse one or more phenotypes of aging. Such a drug screening approach was tested using proof-of-concept drug screens, including an in vivo drug screening experimental model. This machine learning-based drug screening approach for aging-related therapies is described below. The machine learning-based skin tissue aging modeling approach was used to test an in vivo screening system for detecting topical anti-aging interventions on mouse skin.
Mouse skin tissue samples were acquired and prepared as follows. Skin samples were collected from 75 healthy C57BL/6J mice in five separate groups: 15 mice in a control group were 10 months old (“Control 1”), 15 mice in another control group were 14 months old (“Control 2”), 15 mice in a third control group were 18 months old (“Control 3”), and two independent treatment groups comprised 18-month-old mice (“Test Article 1” and “Test Article 2”). Each treatment group included 15 mice given a daily topical application for 61 days, as detailed below. All mouse ages are referenced from the start of the experiment.
The mice were shaved as necessary on a weekly basis in order to enable daily topical application on the back of the mice. […]

For the compound Wnt3a, in the assay with mouse myoblast cells, the “Change relative to control” value was −5.04% and the “Average predicted age of treatment (months)” value is recorded as 64.11 months.
As to `CC[C@H](C)[C@@H]1NC(=O)[C@H](Cc2ccc(O)cc2)NC(=O)[C@@H](N)CSSC[C@@H](C(=O)N2CCC[C@H]2C(=O)N[C@@H](CC(C)C)C(=O)NCC(N)=O)NC(=O)[C@H](CC(N)=O)NC(=O)[C@H](CCC(N)=O)NC1=O` [Oxytocin], in the assay with mouse myoblast cells, the “Change relative to control” value is −0.92% and the “Average predicted age of treatment (months)” value is 67.66 months.
For `Cc1cccc(-c2[nH]ncc2-c2ccc3ncccc3n2)n1` [ALK5 inhibitor II], in the assay with mouse myoblast cells, the “Change relative to control” value is recorded as −14.13% and the “Average predicted age of treatment (months)” value was 56.22 months.
`CC(C)n1nc(-c2cc3cc(O)ccc3[nH]2)c2c(N)ncnc21` [PP242]: in the assay on mouse myoblast cells, the “Change relative to control” value is −17.14% and the “Average predicted age of treatment (months)” value was 56.16 months.
As for `CC1=C(/C=C/C(C)=C/C=C/C(C)=C/C(=O)O)C(C)(C)CCC1` [Test Article 1, All Trans Retinoic Acid], the “Average predicted age (months)” value in the assay on mouse skin tissue (18-month-old mice, HES-stained skin biopsies, averaged over tiles, three folds and mice) is given as 15.9 months. Further, in the assay on mouse skin tissue (average predicted age vs control group (averaged across control groups 1-3)), the “Change relative to control group” value is −7.28%.
